Key:
[1] = toxicity control mice, immunosuppressed, uninfected; details: for Mean Body Weight Change: start of treatment to 24 hr after final treatment; for Surv/Total: toxicity controls
Protocol: The mice were immunosuppressed by intraperitoneal (i.p.) injection with 100 mg/kg/day of cyclophosphamide administered on days -1, +3, +6, +10, +14 and +18 relative to virus inoculation. […] In a second portion of the study, the compound was administered i.p. in a dose of 0.1 mg/kg/day once daily from day -2 through +10. Ganciclovir in a dose of 50 mg/kg/day was injected i.p. once daily for 10 days beginning 24 hr post-virus exposure (days +1→+10). A total of 15 infected mice/dose were used. […] Five toxicity control mice were used at each dose; these mice were treated in parallel with the infected mice, and were weighed on the initial day of treatment and again 24 after the final treatment. […] Normal controls were weighed and held in parallel with the toxicity controls.

CMV strain AD-169 = experiment: plaque reduction assay, CMV AD-169 in HFF cells; format: cell-based, human CMV; details: CMV AD-169, HFF, without 24 h drug pretreatment
Protocol: The following procedures were then used to determine inhibitory effects of AV-9 on the replication of CMV. […] This was accomplished by diluting the stock peptide solution in growth medium (10% fetal bovine serum and 10 μg/ml gentamicin in Dulbecco's MEM (DMEM)) used to overlay the monolayers.
[…] Virus was then allowed to adsorb for 1 hour at 37° C. The virus inoculum was removed and the monolayers were overlayed with DMEM containing 2% FBS, 10 ug/ml gentamicin and a specified concentration of AV-9. Virus was next allowed to replicate for 7 to 10 days until the plaques were judged to be well developed, and then the monolayers were fixed and stained with a solution of 1% crystal violet in 1% formaldehyde,70% ethanol. Finally, plaques (each representing a single viable virion) were counted and checked microscopically.
In a like manner, plaque reduction assays were also performed against other CMV strains and another CMV host, with comparison against ganciclovir (GCV) and foscarnet (FCV).

HCMV strain AD-169 = experiment: drug combination plaque reduction study (MacSynergy); format: cell-based; details: human CMV-infected MRC-5 cells, plaque counts
Protocol: For use in this study, HCMV strain AD-169 was obtained from the American Type Culture Collection, Rockville, Md. and ganciclovirresistant clinical isolate of HCMV, strain D16, was obtained from Kenneth D. Thompson, Loyola University Medical Center, Maywood, Ill. Host MRC-5 cells were cultured in a medium of Basal Medium Eagle (BME) (GIBCO), fetal bovine serum (FBS) (Hyclone Laboratories), 0.035% NaHCO3 and without antibiotics.
Test medium for dilution of virus and for preparation and dilution of compounds was Dulbecco's modified Eagle medium (DMEM), 2% FBS, 0.1% NaHCO3, 50 μg gentamicin/ml.
For drug combination experiments, each of AV-9, DHPG, foscarnet, and […] was prepared in test medium at double the highest concentration used. Each of these compound preparations was then diluted by serial 2-fold dilutions in test medium (except for AZT, which was diluted by serial half-log dilutions).
Growth medium was decanted from established monolayers of MRC-5 cells in 24-well tissue culture plates. Compound dilutions were placed in designated wells of the plates at 0.8 ml/well, with test medium only placed in virus control or cell control wells, and the plates were placed at 37° C. Four wells were used for each different compound dilution. After 24 hr of pre-treatment incubation, the medium was aspirated from each well of the plates. One ml of virus, diluted in test medium was placed in each well except those to be used for cell controls or those to be used for toxicity controls. One ml of sterile test medium was placed in each of these cell or toxicity control wells. The plates were centrifuged at 2200 rpm for 30 minutes at room temperature to allow the virus to adsorb. Medium was aspirated from each well of the plates. The proper individual compound concentrations or combinations were placed in test wells (0.8 ml/well, 4 wells/dilution) or in toxicity control wells. Test medium without compound was added (0.8 ml/well) to each cell control and virus control well. All plates were incubated at 37° C. in a moist atmosphere of 5% CO2, 95% air. […] After 15 minutes, the stain was removed, cells were rinsed in tap water until the water was clear, and the plates were inverted and dried at room temperature. Plaques were counted by use of a dissecting microscope. The plaque counts were entered in the MacSynergy™ program of Prichard and Shipman and 3-D plots were made.

Structure (SMILES): CC(=O)N[C@H](CCCNC(=N)N)C(=O)N[C@H](CCCNC(=N)N)C(=O)N[C@H](CCCNC(=N)N)C(=O)N[C@H](CCCNC(=N)N)C(=O)N[C@H](CCCNC(=N)N)C(=O)N[C@H](CCCNC(=N)N)C(=O)N[C@H](CCCNC(=N)N)C(=O)N[C@H](CCCNC(=N)N)C(=O)N[C@H](CCCNC(=N)N)C(N)=O [AV-9, acetyl-[D-Arg]9 -NH2]
- Mean Body Weight Change ([1]; 0.07 mg/kg/day i.p. every other day): 2.7 g
- Mean Body Weight Change ([1]; 0.1 mg/kg/day i.p. daily days -2 to +10): 3.1 g
- Mean Body Weight Change ([1]; 0.2 mg/kg/day i.p. every other day): 2.2 g
- Mean Body Weight Change ([1]; 0.7 mg/kg/day i.p. every other day): 2.4 g
- Mean Body Weight Change ([1]; 2.0 mg/kg/day i.p. every other day): 1.9 g
- other signs of toxicity (hunching, prostration, ruffled fur, tremors) ([1]; all doses): No other signs of toxicity
- toxicity, overall assessment ([1]; all doses, Table 3): reasonably non-toxic
- Surv/Total ([1]; 0.07 mg/kg/day i.p., days -2,0,+2,+4,+6,+8,+10): 5/5
- Surv/Total ([1]; 0.1 mg/kg/day i.p., daily days -2 through +10): 5/5
- Surv/Total ([1]; 0.2 mg/kg/day i.p., days -2,0,+2,+4,+6,+8,+10): 5/5
- Surv/Total ([1]; 0.7 mg/kg/day i.p., days -2,0,+2,+4,+6,+8,+10): 5/5
- Surv/Total ([1]; 2.0 mg/kg/day i.p., days -2,0,+2,+4,+6,+8,+10): 5/5
- IC50 (CMV strain AD-169): 12 µM
- antagonism in combination with phosphonoformic acid (foscarnet) (HCMV strain AD-169): insignificant amount of antagonism
- synergy in combination with AZT (HCMV strain AD-169): No synergy
- synergy in combination with DHPG (HCMV strain AD-169): intense synergy
- synergy in combination with phosphonoformic acid (foscarnet) (HCMV strain AD-169): moderate amount of synergy

Reference: US5633230A, “Treatment of cytomegalovirus infection” (priority 1994, dated 1997)
